Measurements: ChEMBL document CHEMBL5696441 (Nat Chem Biol, 2011)

Experiments:
[1] = tested on: Tyrosine-protein kinase ABL1 (Homo sapiens), P00519 [F317I]; assay: Inhibition of human ABL1 F317I mutant assessed as residual activity at 1 uM using Poly(Ala,Glu,Lys,Tyr)6:2:5:1 as substrate in presence of 33P-ATP by ProQinase assay relative to control
[2] = target: Ribosomal protein S6 kinase alpha-1 (Homo sapiens) (UniProt Q15418); assay: Inhibition of N-terminal kinase domain RPS6KA1 (unknown origin) assessed as remaining activity at 1 uM by Kinome scan method relative to control
[3] = target: Serine/threonine-protein kinase PAK 2 (Homo sapiens) (UniProt Q13177); assay: Inhibition of PAK2 (unknown origin) assessed as remaining activity at 1 uM by Kinome scan method relative to control
[4] = target: Serine/threonine-protein kinase D2 (Homo sapiens) (UniProt Q9BZL6); assay: Inhibition of PRKD2 (unknown origin) assessed as remaining activity at 1 uM by Kinome scan method relative to control
[5] = target: Platelet-derived growth factor receptor alpha (Homo sapiens) (UniProt P16234); assay: Inhibition of PDGFRalpha (unknown origin) assessed as remaining activity at 1 uM by Kinome scan method relative to control
CYP2C9 = CYP2C9 (Homo sapiens, UniProt P11712); assay: Inhibition of CYP2C9 (unknown origin) at 10 uM relative to control; type: ADME
[6] = target: Serine/threonine-protein kinase PLK2 (Homo sapiens) (UniProt Q9NYY3); assay: Inhibition of human SNK assessed as residual activity at 1 uM using RBER-GSK3(14-27) as substrate in presence of 33P-ATP by ProQinase assay relative to control
[7] = target: Tyrosine-protein kinase ZAP-70 (Homo sapiens) (UniProt P43403); assay: Inhibition of ZAP70 (unknown origin) assessed as remaining activity at 1 uM by Kinome scan method relative to control
[8] = target: Serine/threonine-protein kinase PLK2 (Homo sapiens) (UniProt Q9NYY3); assay: Inhibition of PLK2 (unknown origin) assessed as remaining activity at 1 uM by Kinome scan method relative to control
[9] = Anti-inflammatory activity against human derived medium respond PBMC cells assessed as inhibition in stimulated INFgamma cytokine release incubated for 2 hrs in the presence of LPS/SEB/aCD28 by Luminex based sandwich immunoassay; type: functional, cell-based
[10] = target: Insulin-like growth factor 1 receptor (Homo sapiens) (UniProt P08069); assay: Inhibition of IGF1R (unknown origin) assessed as remaining activity at 1 uM by Kinome scan method relative to control
[11] = target: Rho-associated protein kinase 1 (Homo sapiens) (UniProt Q13464); assay: Inhibition of ROCK1 (unknown origin) assessed as remaining activity at 1 uM by Kinome scan method relative to control
[12] = target: Fibroblast growth factor receptor 3 (Homo sapiens) (UniProt P22607); assay: Inhibition of human FGFR3 assessed as residual activity at 1 uM using PolyEY as substrate in presence of 33P-ATP by ProQinase assay relative to control
[13] = target: Ribosomal protein S6 kinase beta-1 (Homo sapiens) (UniProt P23443); assay: Inhibition of human S6K1 assessed as residual activity at 1 uM using RBER-GSK3(14-27) as substrate in presence of 33P-ATP by ProQinase assay relative to control
[14] = target: Tyrosine-protein kinase Lck (Homo sapiens) (UniProt P06239); assay: Inhibition of LCK (unknown origin) assessed as remaining activity at 1 uM by Kinome scan method relative to control
[15] = tested on: Hepatocyte growth factor receptor (Homo sapiens), P08581 [M1250T]; assay: Inhibition of MET M1250T mutant (unknown origin) assessed as remaining activity at 1 uM by Kinome scan method relative to control
[16] = target: Serine/threonine-protein kinase TNNI3K (Homo sapiens) (UniProt Q59H18); assay: Inhibition of TNNI3K (unknown origin) assessed as remaining activity at 1 uM by Kinome scan method relative to control
[17] = target: Cyclin-dependent kinase 2/cyclin E1 (Homo sapiens) (UniProt P24864+P24941); assay: Inhibition of human CDK2/CycE1 assessed as residual activity at 1 uM using RBER-CHKtide as substrate in presence of 33P-ATP by ProQinase assay relative to control; type: protein-complex assay
[18] = target: Dual specificity tyrosine-phosphorylation-regulated kinase 1B (Homo sapiens) (UniProt Q9Y463); assay: Inhibition of DYRK1B (unknown origin) assessed as remaining activity at 1 uM by Kinome scan method relative to control
[19] = target: Serine/threonine-protein kinase 24 (Homo sapiens) (UniProt Q9Y6E0); assay: Inhibition of MST3 (unknown origin) assessed as remaining activity at 1 uM by Kinome scan method relative to control
[20] = target: Protein kinase C eta type (Homo sapiens) (UniProt P24723); assay: Inhibition of human PKCeta assessed as residual activity at 1 uM using histon H2B as substrate in presence of 33P-ATP by ProQinase assay relative to control
[21] = target: Eukaryotic translation initiation factor 2-alpha kinase 3 (Homo sapiens) (UniProt Q9NZJ5); assay: Inhibition of human EIF2AK3 assessed as residual activity at 1 uM using casein as substrate in presence of 33P-ATP by ProQinase assay relative to control
[22] = target: Insulin receptor (Homo sapiens) (UniProt P06213); assay: Inhibition of human INSR assessed as residual activity at 1 uM using poly(Ala,Glu,Lys,Tyr)6:2:5:1 as substrate in presence of 33P-ATP by ProQinase assay relative to control
[23] = tested on: Tyrosine-protein kinase ABL1 (Homo sapiens), P00519 [G250E]; assay: Inhibition of human ABL1 G250E mutant assessed as residual activity at 1 uM using Poly(Ala,Glu,Lys,Tyr)6:2:5:1 as substrate in presence of 33P-ATP by ProQinase assay relative to control
[24] = target: 5'-AMP-activated protein kinase catalytic subunit alpha-1 (Homo sapiens) (UniProt Q13131); assay: Inhibition of AMPK-alpha1 (unknown origin) assessed as remaining activity at 1 uM by Kinome scan method relative to control
[25] = tested on: Tyrosine-protein kinase ABL1 (Homo sapiens), P00519 [H396P]; assay: Inhibition of ABL1 H396P mutant (unknown origin) assessed as remaining activity at 1 uM by Kinome scan method relative to control
[26] = Anti-inflammatory activity against human derived high respond PBMC cells assessed as inhibition in stimulated IL-10 cytokine release incubated for 2 hrs in the presence of LPS/SEB/aCD28 by Luminex based sandwich immunoassay; type: functional, cell-based
[27] = target: G protein-coupled receptor kinase 4 (Homo sapiens) (UniProt P32298); assay: Inhibition of GRK4 (unknown origin) assessed as remaining activity at 1 uM by Kinome scan method relative to control
[28] = target: Serine/threonine-protein kinase TAO1 (Homo sapiens) (UniProt Q7L7X3); assay: Inhibition of TAOK1 (unknown origin) assessed as remaining activity at 1 uM by Kinome scan method relative to control

Chain of Serine/threonine-protein kinase PLK2 (Homo sapiens) (Q9NYY3 whole entry, looked up): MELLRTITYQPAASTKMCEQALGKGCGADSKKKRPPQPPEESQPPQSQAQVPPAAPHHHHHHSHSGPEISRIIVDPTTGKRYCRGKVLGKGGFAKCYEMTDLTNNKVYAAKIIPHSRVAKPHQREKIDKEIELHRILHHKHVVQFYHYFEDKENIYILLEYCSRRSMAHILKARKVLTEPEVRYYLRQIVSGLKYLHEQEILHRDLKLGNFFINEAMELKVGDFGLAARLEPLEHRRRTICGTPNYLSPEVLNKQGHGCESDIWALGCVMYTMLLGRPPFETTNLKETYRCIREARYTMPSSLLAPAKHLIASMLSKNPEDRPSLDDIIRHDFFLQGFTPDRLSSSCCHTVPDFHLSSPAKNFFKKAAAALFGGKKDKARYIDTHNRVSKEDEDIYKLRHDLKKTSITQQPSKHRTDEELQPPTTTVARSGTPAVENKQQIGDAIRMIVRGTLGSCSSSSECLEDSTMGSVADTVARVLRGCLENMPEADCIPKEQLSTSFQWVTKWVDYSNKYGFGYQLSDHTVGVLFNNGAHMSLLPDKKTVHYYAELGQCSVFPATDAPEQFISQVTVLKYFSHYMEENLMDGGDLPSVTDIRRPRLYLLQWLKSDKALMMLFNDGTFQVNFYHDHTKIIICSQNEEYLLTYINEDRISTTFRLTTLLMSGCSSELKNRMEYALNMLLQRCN
Chain of Insulin-like growth factor 1 receptor (Homo sapiens) (P08069 31-736 limits assumed): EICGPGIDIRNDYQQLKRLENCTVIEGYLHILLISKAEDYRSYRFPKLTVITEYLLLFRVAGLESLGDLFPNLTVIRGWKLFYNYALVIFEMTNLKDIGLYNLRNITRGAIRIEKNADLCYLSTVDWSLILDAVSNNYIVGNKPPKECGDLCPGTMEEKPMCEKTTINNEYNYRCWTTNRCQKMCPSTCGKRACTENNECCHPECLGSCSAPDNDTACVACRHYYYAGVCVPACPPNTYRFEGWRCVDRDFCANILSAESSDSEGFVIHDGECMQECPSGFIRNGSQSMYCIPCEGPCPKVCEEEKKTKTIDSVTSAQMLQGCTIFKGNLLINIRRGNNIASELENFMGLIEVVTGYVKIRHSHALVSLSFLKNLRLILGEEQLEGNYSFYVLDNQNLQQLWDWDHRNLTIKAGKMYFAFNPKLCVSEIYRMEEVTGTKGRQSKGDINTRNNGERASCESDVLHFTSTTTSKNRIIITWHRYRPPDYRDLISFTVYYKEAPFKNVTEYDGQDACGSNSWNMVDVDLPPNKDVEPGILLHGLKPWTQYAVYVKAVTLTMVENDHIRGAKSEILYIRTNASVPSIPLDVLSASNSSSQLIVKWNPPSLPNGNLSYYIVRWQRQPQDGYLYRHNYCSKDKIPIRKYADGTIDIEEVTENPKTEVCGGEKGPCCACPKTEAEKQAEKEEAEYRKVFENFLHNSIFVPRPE
Chain of Insulin-like growth factor 1 receptor (Homo sapiens) (P08069 741-1367 limits assumed): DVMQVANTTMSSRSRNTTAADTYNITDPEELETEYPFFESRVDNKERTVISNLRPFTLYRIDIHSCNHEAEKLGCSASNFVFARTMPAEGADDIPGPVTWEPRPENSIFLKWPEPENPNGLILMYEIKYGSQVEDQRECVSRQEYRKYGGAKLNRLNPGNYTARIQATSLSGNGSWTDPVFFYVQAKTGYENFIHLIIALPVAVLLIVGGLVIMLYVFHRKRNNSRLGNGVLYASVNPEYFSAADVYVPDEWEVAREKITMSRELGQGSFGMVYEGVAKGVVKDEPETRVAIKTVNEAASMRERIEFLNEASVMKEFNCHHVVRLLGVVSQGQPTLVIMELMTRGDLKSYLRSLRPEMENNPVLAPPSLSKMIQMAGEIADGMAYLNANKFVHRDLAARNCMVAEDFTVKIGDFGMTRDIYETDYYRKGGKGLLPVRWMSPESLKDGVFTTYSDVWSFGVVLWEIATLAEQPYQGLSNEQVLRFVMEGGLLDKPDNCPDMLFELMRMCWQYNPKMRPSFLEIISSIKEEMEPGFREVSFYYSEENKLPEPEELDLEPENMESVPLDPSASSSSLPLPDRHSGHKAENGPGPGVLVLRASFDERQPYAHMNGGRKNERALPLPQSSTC
Chain of Ribosomal protein S6 kinase alpha-1 (Homo sapiens) (Q15418 whole entry, the tested form may be a part): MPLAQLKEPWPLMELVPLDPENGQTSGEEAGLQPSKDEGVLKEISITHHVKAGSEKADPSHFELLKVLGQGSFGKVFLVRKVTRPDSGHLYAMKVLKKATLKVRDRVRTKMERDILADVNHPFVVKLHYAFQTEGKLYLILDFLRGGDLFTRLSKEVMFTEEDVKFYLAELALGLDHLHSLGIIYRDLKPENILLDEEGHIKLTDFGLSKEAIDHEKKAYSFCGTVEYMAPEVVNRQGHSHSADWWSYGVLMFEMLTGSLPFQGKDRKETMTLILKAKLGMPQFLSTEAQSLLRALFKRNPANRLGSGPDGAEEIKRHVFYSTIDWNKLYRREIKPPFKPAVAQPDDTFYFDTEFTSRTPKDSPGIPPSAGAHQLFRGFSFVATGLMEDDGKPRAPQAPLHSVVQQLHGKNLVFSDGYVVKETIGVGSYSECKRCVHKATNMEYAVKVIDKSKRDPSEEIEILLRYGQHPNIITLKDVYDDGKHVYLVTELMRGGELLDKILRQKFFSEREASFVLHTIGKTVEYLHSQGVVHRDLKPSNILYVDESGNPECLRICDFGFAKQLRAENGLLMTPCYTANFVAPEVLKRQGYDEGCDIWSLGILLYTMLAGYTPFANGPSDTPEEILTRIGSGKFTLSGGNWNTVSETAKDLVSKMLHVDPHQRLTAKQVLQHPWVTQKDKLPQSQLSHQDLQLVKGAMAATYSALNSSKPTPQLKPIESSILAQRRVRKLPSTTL
Chain of Rho-associated protein kinase 1 (Homo sapiens) (Q13464 2-1354 limits assumed): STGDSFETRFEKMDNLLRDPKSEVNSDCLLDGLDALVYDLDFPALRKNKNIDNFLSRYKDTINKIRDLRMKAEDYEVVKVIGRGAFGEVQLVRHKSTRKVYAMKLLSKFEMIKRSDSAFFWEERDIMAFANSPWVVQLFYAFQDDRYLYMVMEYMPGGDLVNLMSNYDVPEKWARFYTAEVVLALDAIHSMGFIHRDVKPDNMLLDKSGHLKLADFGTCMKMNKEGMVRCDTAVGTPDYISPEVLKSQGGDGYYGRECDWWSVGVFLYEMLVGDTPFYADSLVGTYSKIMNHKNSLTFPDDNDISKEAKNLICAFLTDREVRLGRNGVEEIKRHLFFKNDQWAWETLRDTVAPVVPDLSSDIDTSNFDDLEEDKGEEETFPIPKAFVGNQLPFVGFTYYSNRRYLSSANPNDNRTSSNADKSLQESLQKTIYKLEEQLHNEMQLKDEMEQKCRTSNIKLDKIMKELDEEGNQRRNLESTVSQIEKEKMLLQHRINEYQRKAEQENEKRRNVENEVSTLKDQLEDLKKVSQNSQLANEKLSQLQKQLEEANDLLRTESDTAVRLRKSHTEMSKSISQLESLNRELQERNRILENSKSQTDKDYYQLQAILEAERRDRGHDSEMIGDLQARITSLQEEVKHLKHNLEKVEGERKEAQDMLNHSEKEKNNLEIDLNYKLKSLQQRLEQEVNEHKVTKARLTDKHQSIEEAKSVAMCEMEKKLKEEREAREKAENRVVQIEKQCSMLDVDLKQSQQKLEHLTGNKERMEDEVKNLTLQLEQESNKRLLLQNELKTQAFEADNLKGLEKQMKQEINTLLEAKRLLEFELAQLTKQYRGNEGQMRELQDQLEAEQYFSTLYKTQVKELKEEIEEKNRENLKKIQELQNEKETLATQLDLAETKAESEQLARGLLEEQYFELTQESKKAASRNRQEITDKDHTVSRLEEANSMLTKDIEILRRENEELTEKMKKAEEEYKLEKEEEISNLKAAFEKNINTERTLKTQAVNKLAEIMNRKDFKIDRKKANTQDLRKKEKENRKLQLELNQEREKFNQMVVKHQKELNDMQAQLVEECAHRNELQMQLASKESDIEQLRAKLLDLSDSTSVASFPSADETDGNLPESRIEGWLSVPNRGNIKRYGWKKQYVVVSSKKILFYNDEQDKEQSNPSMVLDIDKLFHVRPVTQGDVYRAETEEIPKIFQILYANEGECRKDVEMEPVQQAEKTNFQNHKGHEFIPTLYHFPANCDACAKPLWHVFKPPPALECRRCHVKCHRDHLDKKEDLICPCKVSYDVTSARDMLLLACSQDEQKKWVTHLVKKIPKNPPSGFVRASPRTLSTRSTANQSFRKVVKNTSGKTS
Chain of G protein-coupled receptor kinase 4 (Homo sapiens) (P32298 whole entry, looked up): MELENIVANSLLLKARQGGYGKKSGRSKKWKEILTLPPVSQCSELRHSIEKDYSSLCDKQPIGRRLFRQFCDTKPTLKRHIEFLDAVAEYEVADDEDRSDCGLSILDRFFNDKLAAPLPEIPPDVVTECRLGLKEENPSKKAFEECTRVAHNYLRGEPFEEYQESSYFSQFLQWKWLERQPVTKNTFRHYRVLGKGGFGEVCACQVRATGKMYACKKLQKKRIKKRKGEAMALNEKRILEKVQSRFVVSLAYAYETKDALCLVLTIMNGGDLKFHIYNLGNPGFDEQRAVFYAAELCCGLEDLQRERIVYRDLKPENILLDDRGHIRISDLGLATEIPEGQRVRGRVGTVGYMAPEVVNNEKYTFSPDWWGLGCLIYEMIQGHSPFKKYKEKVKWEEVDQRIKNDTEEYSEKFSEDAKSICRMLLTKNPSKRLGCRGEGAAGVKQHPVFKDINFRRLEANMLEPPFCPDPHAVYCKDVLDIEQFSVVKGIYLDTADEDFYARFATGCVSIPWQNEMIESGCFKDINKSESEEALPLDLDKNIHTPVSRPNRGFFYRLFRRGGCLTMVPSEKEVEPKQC

SMILES: O=C1c2ccc(Nc3ccc(F)cc3F)cc2CCc2ccc(OC[C@H](O)CO)cc21 [Skepinone-L]
- Activity [1]: 102%
- Activity [2]: 100%
- Activity [3]: 100%
- Activity [4]: 100%
- Activity [5]: 100%
- inhibition at 10 µM (CYP2C9): 65%
- Activity [6]: 103%
- Activity [7]: 100%
- Activity [8]: 100%
- IC50 [9]: 0.3 µM
- Activity [10]: 91%
- Activity [11]: 100%
- Activity [12]: 102%
- Activity [13]: 85%
- Activity [14]: 100%
- Activity [15]: 93%
- Activity [16]: 90%
- Activity [17]: 85%
- Activity [18]: 82%
- Activity [19]: 100%
- Activity [20]: 97%
- Activity [21]: 95%
- Activity [22]: 101%
- Activity [23]: 97%
- Activity [24]: 98%
- Activity [25]: 100%
- IC50 [26]: 0.05 µM
- Activity [27]: 100%
- Activity [28]: 100%
